From article PMC10460389, “Design of 8-mer peptides that block Clostridioides difficile toxin A in intestinal cells” (Communications Biology, 2023)

Experiments:
C. diff. infection = conditions: antibiotic treatment (metronidazole and vancomycin); cited from earlier work
Source text: Multiple therapeutic approaches have been developed to treat C. diff. infection. The standard practice is treatment with antibiotics (metronidazole and vancomycin), but in 20% of cases infection reoccurs. Exposure to these antibiotics alters the microbial community in the gut, facilitating colonization by C. diff[21].

[1] = tested on: small intestinal (jejunum) cells exposed to TcdA; conditions: cited from earlier work
TcdA GTD catalytic site = conditions: cited from earlier work
TcdA GTD = conditions: 0.5 μM UDP-Glucose-Fluorescein 15 min; vs no-TcdA-AF594 no-UDP-Glucose-Fluorescein control RP(-T -U) for SA1; two-tailed T-test
Description: For the bead-based assay, statistical analyses were performed using a two-tailed T-test in conjunction with the RP (-T) control. Significance was determined at p < 0.05. […] Approximately 40 beads were imaged for each sample, with images containing out-of-focus beads or bead aggregates being excluded. […] Each SPR sensor was used to run two samples across two separate channels, leading to a total of 14 measurements. However, one measurement was excluded due to the loss of a stable signal.

Compound	cases in which infection reoccurs (C. diff. infection) [%]	neutralization of TcdA in jejunum / small intestinal cells [1]	ΔGbinding (TcdA GTD catalytic site)	change in green fluorescence from center to halo (TcdA binding) region (TcdA GTD)
Cc1ncc([N+](=O)[O-])n1CCO [metronidazole]	20	–	–	–
CN[C@H](CC(C)C)C(=O)N[C@H]1C(=O)N[C@@H](CC(N)=O)C(=O)N[C@H]2C(=O)N[C@H]3C(=O)N[C@H](C(=O)N[C@H](C(=O)O)c4cc(O)cc(O)c4-c4cc3ccc4O)[C@H](O)c3ccc(c(Cl)c3)Oc3cc2cc(c3O[C@@H]2O[C@H](CO)[C@@H](O)[C@H](O)[C@H]2O[C@H]2C[C@](C)(N)[C@H](O)[C@H](C)O2)Oc2ccc(cc2Cl)[C@H]1O [vancomycin]	20	–	–	–
DGWIQHYKHR [NPC, computationally designed 10-mer peptide from previous work]	–	neutralized toxin A in jejunum cells	-6.15	–
GMFWQHRRHD [NPB, computationally designed 10-mer peptide from previous work]	–	neutralized toxin A in jejunum cells	-11.35	–
HEWGRRHN [SA7]	–	–	–	All peptides except SA7 showed a significant (p < 0.005) decrease in green fluorescence
